Measured values published in patent US12435061B2 (priority 2020, dated 2025).
Several values for one entry are separate records, joined by “and”; a condition that tells them apart may be missing. Equal values may be shown once. Where a name gives a salt, the structure may show the parent alone. Read-outs that look alike come from different tables or passages of the source.

Molecular target: hTRPV3 (Homo sapiens (Human), UniProt Q8NET8)
Test: Whole-cell patch clamp, hTRPV3 Phase 1 / Phase 2 currents
Format: cell-based
Text: Whole-cell patch clamp experiments permit the detection of currents through the TRPV3 channel in the cell line described above. A glass electrode is brought into contact with a single cell and the membrane is then ruptured, permitting control of the voltage of the cell membrane and measurement of currents flowing across the membrane using the amplifier attached to the electrode. A perfusion system permits control of the extracellular solution, including the addition of blockers and activators of the current. The current can be activated by heating this solution to 28° C. or warmer or by addition of 20 μM 2-APB to the solution.
TRPV3 cells were induced 20-48 hours, removed from growth plates, and replated at low density (to attain good single-cell physical separation) on glass coverslips for measurement. In some cases, cells were grown in low density overnight on glass coverslips. Patch clamp recordings were made in the whole-cell mode with a holding potential of −40 mV. Every 5 seconds, a voltage ramp was applied from −120 to +100 mV, 400 ms in duration. Currents elicited were quantified at −80 mV and +80 mV. […] External solution was Ringer's solution described above.
P1 refers to the Phase 1 current for human (h) TRPV3, and P2 refers to the Phase 2 current for human (h) TRPV3.
In Tables 3 and 4, Phase 1 refers to Phase 1 current for human (h) TRPV3 or rat (r) TRPV3, and Phase 2 refers to Phase 2 current for human (h) TRPV3 or rat (r) TRPV3. The hTRPV3 and rTRPV3 assays were performed as described herein. hERG refers to the inhibition the human ERG (hERG) channel. NaV1.5, refers to the pore forming aL-subunit of the voltage-dependent cardiac Na(+) channel and is an integral membrane protein involved in the initiation and conduction of action potentials. hTRPV3 HAMA IC50 refers to the IC50 of TRPV3 cells stably expressed in TRex-293 cells. Solubility Ringer refers to the compounds' solubility in Ringer's solution. LM T1/2 refers to liver microsome half-lives in either rat or human liver microsomes. FLIPR IC50 refers to the IC50 of the test compounds against recombinant hTRPV3 cells.

[1] = Phase 1 current, inward, whole-cell patch clamp, read-out: hTRPV3 Patch P1 Inwd
[2] = Phase 2 current, inward, whole-cell patch clamp, read-out: hTRPV3 Patch P2 Inwd
[3] = Phase 1 current, human TRPV3, read-out: hTRPV3 (nM) Phase 1
[4] = Phase 1 current, read-out: hTRPV3 (nM) (Phase 1)
[5] = Phase 2 current, read-out: hTRPV3 (nM) (Phase 2)

Sequence of hTRPV3 (Q8NET8 whole entry): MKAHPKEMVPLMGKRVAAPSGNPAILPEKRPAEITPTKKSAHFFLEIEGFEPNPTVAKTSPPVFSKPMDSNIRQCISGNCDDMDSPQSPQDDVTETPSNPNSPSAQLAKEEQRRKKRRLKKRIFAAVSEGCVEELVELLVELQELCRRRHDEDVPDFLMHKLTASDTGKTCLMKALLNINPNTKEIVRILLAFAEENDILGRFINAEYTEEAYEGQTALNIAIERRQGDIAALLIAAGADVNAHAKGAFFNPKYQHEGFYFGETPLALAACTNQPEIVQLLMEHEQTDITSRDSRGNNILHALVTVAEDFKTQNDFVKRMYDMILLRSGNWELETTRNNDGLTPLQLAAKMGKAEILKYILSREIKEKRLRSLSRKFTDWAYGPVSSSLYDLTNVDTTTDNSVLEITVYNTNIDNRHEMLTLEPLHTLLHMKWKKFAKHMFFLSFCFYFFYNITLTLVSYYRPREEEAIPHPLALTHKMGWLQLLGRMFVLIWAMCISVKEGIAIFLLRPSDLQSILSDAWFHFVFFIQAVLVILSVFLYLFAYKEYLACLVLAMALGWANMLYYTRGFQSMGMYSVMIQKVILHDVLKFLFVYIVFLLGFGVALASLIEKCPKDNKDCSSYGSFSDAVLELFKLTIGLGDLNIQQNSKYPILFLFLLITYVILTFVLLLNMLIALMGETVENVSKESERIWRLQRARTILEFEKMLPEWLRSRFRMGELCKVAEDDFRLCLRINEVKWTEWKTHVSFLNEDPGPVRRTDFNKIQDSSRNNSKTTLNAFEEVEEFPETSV

2-(1-o-tolylpyrrolidin-3-yloxy)-5-(trifluoromethyl)pyridine [Compound 1-1]
IC50 [1]: > 1000 nM
IC50 [2]: > 1000 nM

5-(2-isopropylphenoxy)-2-(1-(pyrazine-2-carbonyl)pyrrolidin-3-yl)benzamide [Compound 2-103]
IC50 [3]: ~5250 nM
IC50 [1]: > 1000 nM

Cc1cccc(C(=O)c2ccc(C3CCN(C(=O)c4ncccc4Cl)C3)c(CO)c2)c1 (single isomer, unassigned) [Compound 2-3]
IC50 [1]: 10 to 100 nM

Cc1cccc(C(O)c2ccc(C3CCN(C(=O)c4ncccc4Cl)C3)c(CO)c2)c1 (single isomer, unassigned) [Compound 2-8]
IC50 [3]: > 3200 nM
IC50 [1]: > 1000 nM

CC(C)(C)NS(=O)(=O)c1cc(-c2ccccc2)ccc1N1CCC(Oc2ccc(C(F)(F)F)cn2)C1 (stereo in doubt) [Compound 1-96, (S)—N-tert-butyl-4-(3-(5-(trifluoromethyl)pyridin-2-yloxy)pyrrolidin-1-yl)biphenyl-3-sulfonamide]
IC50 [1]: > 1000 nM
IC50 [4]: > 3200 nM
IC50 [2]: > 1000 nM
IC50 [5]: > 3200 nM

NC(=O)c1cc(-c2ccccc2)ccc1N1CC[C@H](Nc2ccc(C(F)(F)F)cn2)C1 (stereo in doubt) [Compound 1-375]
IC50 [4]: > 1000 nM and ~5500 nM
IC50 [5]: > 1000 nM and ~2850 nM

N#Cc1ccccc1N1CCC(Oc2ccc(C(F)(F)F)cn2)C1 (stereo not shown) [Compound 1-5]
IC50 [1]: > 1000 nM
IC50 [2]: > 1000 nM

N#Cc1ccccc1N1CC[C@@H](Oc2ccc(C(F)(F)F)cn2)C1 [Compound 1-9, (R)-2-(3-(5-(trifluoromethyl)pyridin-2-yloxy)pyrrolidin-1-yl)benzonitrile]
IC50 [1]: > 1000 nM

N#Cc1ccccc1N1CC[C@H](Oc2ccc(C(F)(F)F)cn2)C1 [Compound 1-11, (S)-2-(3-(5-(trifluoromethyl)pyridin-2-yloxy)pyrrolidin-1-yl)benzonitrile]
IC50 [1]: > 1000 nM

NCc1ccccc1N1CC[C@H](Oc2ccc(C(F)(F)F)cn2)C1 [Compound 1-13, (S)-(2-(3-(5-(trifluoromethyl)pyridin-2-yloxy)pyrrolidin-1-yl)phenyl)methanamine HCl salt]
IC50 [1]: > 1000 nM
IC50 [2]: > 1000 nM

CC(C)Oc1ccccc1N1CC[C@H](Oc2ccc(C(F)(F)F)cn2)C1 [Compound 1-15, (S)-2-(1-(2-isopropoxyphenyl)pyrrolidin-3-yloxy)-5-(trifluoromethyl)pyridine]
IC50 [1]: > 1000 nM
IC50 [2]: > 1000 nM

NCc1ccccc1N1CC[C@@H](Oc2ccc(C(F)(F)F)cn2)C1 [Compound 1-20, (R)-(2-(3-(5-(trifluoromethyl)pyridin-2-yloxy)pyrrolidin-1-yl)phenyl)methanamine]
IC50 [1]: > 1000 nM
IC50 [2]: > 1000 nM

N#Cc1ccc(N2CC[C@H](Oc3ccc(C(F)(F)F)cn3)C2)c(C(N)=O)c1 [Compound 1-23, (S)-5-cyano-2-(3-(5-(trifluoromethyl)pyridin-2-yloxy)pyrrolidin-1-yl)benzamide]
IC50 [1]: > 1000 nM

O=C(O)c1ccccc1N1CC[C@H](Oc2ccc(C(F)(F)F)cn2)C1 [Compound 1-24, (S)-2-(3-(5-(trifluoromethyl)pyridin-2-yloxy)pyrrolidin-1-yl)benzoic acid]
IC50 [1]: > 1000 nM

FC(F)(F)c1ccc(O[C@H]2CCN(c3ccccc3OC3CCCC3)C2)nc1 [Compound 1-25, (S)-2-(1-(2-(cyclopentyloxy)phenyl)pyrrolidin-3-yloxy)-5-(trifluoromethyl)pyridine]
IC50 [1]: > 1000 nM

FC(F)(F)c1ccc(O[C@H]2CCN(c3ccccc3OCc3ccccc3)C2)nc1 [Compound 1-26, (S)-2-(1-(2-(benzyloxy)phenyl)pyrrolidin-3-yloxy)-5-(trifluoromethyl)pyridine]
IC50 [1]: > 1000 nM

N#Cc1ccc(N2CC[C@@H](Oc3ccc(C(F)(F)F)cn3)C2)c(C(N)=O)c1 [Compound 1-34, (R)-5-cyano-2-(3-(5-(trifluoromethyl)pyridin-2-yloxy)pyrrolidin-1-yl)benzamide]
IC50 [1]: > 1000 nM

NCc1ccc(N2CC[C@H](Oc3ccc(C(F)(F)F)cn3)C2)c(C(N)=O)c1 [Compound 1-35]
IC50 [1]: > 1000 nM

FC(F)(F)c1ccc(O[C@@H]2CCN(c3ccccc3OC3CCCC3)C2)nc1 [Compound 1-36, (R)-2-(1-(2-(cyclopentyloxy)phenyl)pyrrolidin-3-yloxy)-5-(trifluoromethyl)pyridine]
IC50 [1]: > 1000 nM

CC(C)Oc1ccccc1N1CC[C@@H](Oc2ccc(C(F)(F)F)cn2)C1 [Compound 1-37, (R)-2-(1-(2-isopropoxyphenyl)pyrrolidin-3-yloxy)-5-(trifluoromethyl)pyridine]
IC50 [1]: > 1000 nM

FC(F)(F)c1ccc(O[C@@H]2CCN(c3ccccc3OCc3ccccc3)C2)nc1 [Compound 1-38, (R)-2-(1-(2-(benzyloxy)phenyl)pyrrolidin-3-yloxy)-5-(trifluoromethyl)pyridine]
IC50 [1]: > 1000 nM

CNC(=O)c1ccccc1N1CC[C@H](Oc2ccc(C(F)(F)F)cn2)C1 [Compound 1-39, (S)—N-methyl-2-(3-(5-(trifluoromethyl)pyridin-2-yloxy)pyrrolidin-1-yl)benzamide]
IC50 [1]: > 1000 nM

O=C(O)c1ccccc1N1CC[C@@H](Oc2ccc(C(F)(F)F)cn2)C1 [Compound 1-41, (R)-2-(3-(5-(trifluoromethyl)pyridin-2-yloxy)pyrrolidin-1-yl)benzoic acid]
IC50 [1]: > 1000 nM
IC50 [2]: > 1000 nM

NCc1ccc(N2CC[C@@H](Oc3ccc(C(F)(F)F)cn3)C2)c(C(N)=O)c1 [Compound 1-45]
IC50 [1]: > 1000 nM

CC(C)NC(=O)c1ccccc1N1CC[C@H](Oc2ccc(C(F)(F)F)cn2)C1 [Compound 1-46, (S)—N-isopropyl-2-(3-(5-(trifluoromethyl)pyridin-2-yloxy)pyrrolidin-1-yl)benzamide]
IC50 [1]: > 1000 nM

CNC(=O)c1ccccc1N1CC[C@@H](Oc2ccc(C(F)(F)F)cn2)C1 [Compound 1-47, (R)—N-methyl-2-(3-(5-(trifluoromethyl)pyridin-2-yloxy)pyrrolidin-1-yl)benzamide]
IC50 [1]: > 1000 nM

CC(C)NC(=O)c1ccccc1N1CC[C@@H](Oc2ccc(C(F)(F)F)cn2)C1 [Compound 1-49, (R)—N-isopropyl-2-(3-(5-(trifluoromethyl)pyridin-2-yloxy)pyrrolidin-1-yl)benzamide]
IC50 [1]: > 1000 nM

O=C(NCc1ccccc1)c1ccccc1N1CC[C@@H](Oc2ccc(C(F)(F)F)cn2)C1 [Compound 1-50, (R)—N-benzyl-2-(3-(5-(trifluoromethyl)pyridin-2-yloxy)pyrrolidin-1-yl)benzamide]
IC50 [1]: > 1000 nM
IC50 [2]: > 1000 nM

O=C(NCc1ccccc1)c1ccccc1N1CC[C@H](Oc2ccc(C(F)(F)F)cn2)C1 [Compound 1-51, (S)—N-benzyl-2-(3-(5-(trifluoromethyl)pyridin-2-yloxy)pyrrolidin-1-yl)benzamide]
IC50 [2]: > 1000 nM

O=C(c1ccccc1N1CC[C@H](Oc2ccc(C(F)(F)F)cn2)C1)N(Cc1ccccc1)Cc1ccccc1 [Compound 1-52, (S)—N,N-dibenzyl-2-(3-(5-(trifluoromethyl)pyridin-2-yloxy)pyrrolidin-1-yl)benzamide]
IC50 [1]: > 1000 nM

O=C(c1ccccc1N1CC[C@@H](Oc2ccc(C(F)(F)F)cn2)C1)N(Cc1ccccc1)Cc1ccccc1 [Compound 1-53, (R)—N,N-dibenzyl-2-(3-(5-(trifluoromethyl)pyridin-2-yloxy)pyrrolidin-1-yl)benzamide]
IC50 [1]: > 1000 nM

CC(C)(C)OC(=O)c1ccccc1N1CC[C@H](Oc2ccc(C(F)(F)F)cn2)C1 [Compound 1-54, (S)-tert-butyl 2-(3-(5-(trifluoromethyl)pyridin-2-yloxy)pyrrolidin-1-yl)benzoate]
IC50 [1]: > 1000 nM

CC(C)(C)OC(=O)c1ccccc1N1CC[C@@H](Oc2ccc(C(F)(F)F)cn2)C1 [Compound 1-55, (R)-tert-butyl 2-(3-(5-(trifluoromethyl)pyridin-2-yloxy)pyrrolidin-1-yl)benzoate]
IC50 [1]: > 1000 nM
IC50 [2]: > 1000 nM

CN(C)Cc1ccccc1N1CC[C@@H](Oc2ccc(C(F)(F)F)cn2)C1 [Compound 1-60, (R)—N,N-dimethyl-1-(2-(3-(5-(trifluoromethyl)pyridin-2-yloxy)pyrrolidin-1-yl)phenyl) methanamine hydrochloride]
IC50 [1]: > 1000 nM
IC50 [2]: > 1000 nM

CN(C)Cc1ccccc1N1CC[C@H](Oc2ccc(C(F)(F)F)cn2)C1 [Compound 1-61, (S)—N,N-dimethyl-1-(2-(3-(5-(trifluoromethyl)pyridin-2-yloxy)pyrrolidin-1-yl)phenyl) methanamine hydrochloride]
IC50 [1]: > 1000 nM

N#Cc1ccc(-c2ccccc2)cc1N1CC[C@H](Oc2ccc(C(F)(F)F)cn2)C1 [Compound 1-62, (S)-3-(3-(5-(trifluoromethyl)pyridin-2-yloxy)pyrrolidin-1-yl)biphenyl-4-carbonitrile]
IC50 [1]: > 1000 nM
IC50 [2]: > 1000 nM
